Assay results published in publication PMC12136037, “Type II kinase inhibitors that target Parkinson’s disease–associated LRRK2” (Science Advances, 2025).

Experiments:
Experiment in all cases: DSF 100 kinase selectivity screen;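 further: compound tested at 20 µM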
Assay type in all cases: binding
[1] = target: T1, ~100 representative kinases (Homo sapiens, UniProt O14976); settings: protein GAK; average of three replicates
T1 construct: Recombinant protein kinase domains with a concentration of 2 μM
T1 sequence (O14976 1-1311): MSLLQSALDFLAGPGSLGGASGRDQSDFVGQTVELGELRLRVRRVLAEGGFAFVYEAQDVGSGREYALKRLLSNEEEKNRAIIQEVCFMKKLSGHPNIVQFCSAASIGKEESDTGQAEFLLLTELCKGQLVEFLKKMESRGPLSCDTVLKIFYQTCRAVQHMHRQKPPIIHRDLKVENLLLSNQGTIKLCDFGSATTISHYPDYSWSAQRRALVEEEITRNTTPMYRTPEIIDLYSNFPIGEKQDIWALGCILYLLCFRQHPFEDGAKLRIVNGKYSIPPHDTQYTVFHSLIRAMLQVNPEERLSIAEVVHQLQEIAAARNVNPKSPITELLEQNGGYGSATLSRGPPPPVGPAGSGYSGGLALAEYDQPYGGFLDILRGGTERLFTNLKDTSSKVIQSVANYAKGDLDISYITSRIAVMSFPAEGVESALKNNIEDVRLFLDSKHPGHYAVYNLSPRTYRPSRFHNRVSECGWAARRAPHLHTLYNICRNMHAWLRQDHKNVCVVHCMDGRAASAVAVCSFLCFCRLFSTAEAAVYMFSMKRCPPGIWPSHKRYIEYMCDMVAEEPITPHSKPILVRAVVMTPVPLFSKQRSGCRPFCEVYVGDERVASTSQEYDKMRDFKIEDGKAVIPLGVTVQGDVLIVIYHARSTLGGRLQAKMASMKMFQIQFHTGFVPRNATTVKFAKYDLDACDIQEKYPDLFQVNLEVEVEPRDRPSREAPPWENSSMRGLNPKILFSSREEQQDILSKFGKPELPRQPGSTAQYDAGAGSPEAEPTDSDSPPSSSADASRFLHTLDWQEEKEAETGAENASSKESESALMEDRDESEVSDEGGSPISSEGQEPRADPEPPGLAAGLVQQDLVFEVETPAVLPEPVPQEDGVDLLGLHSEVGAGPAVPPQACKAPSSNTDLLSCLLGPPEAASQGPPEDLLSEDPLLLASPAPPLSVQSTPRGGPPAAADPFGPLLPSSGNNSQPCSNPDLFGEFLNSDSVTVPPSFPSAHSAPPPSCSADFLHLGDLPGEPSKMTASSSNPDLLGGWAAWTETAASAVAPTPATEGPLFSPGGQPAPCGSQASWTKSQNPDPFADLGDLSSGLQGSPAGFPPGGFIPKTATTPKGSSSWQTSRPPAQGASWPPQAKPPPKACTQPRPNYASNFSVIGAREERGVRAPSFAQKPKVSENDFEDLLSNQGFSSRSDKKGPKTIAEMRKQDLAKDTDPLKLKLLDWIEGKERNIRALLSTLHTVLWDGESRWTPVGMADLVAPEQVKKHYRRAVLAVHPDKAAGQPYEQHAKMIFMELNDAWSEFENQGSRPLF
Summary of the method: (§1)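 Each kinase domain, at 2 μM, is mixed with 20 μM test compound and SYPRO Orange in Hepes (20 mM, pH 7.5) with 500 mM NaCl. Temperature is then raised at 3°C/min and fluorescence-monitored unfolding yields the melting temperature change, ΔTm in degrees Celsius.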

[2] = target: T2, ~100 representative kinases (Homo sapiens, UniProt Q16566); settings: Protein CAMK4; average of three replicates
T2 construct: Recombinant protein kinase domains with a concentration of 2 μM
T2 sequence (Q16566 1-473): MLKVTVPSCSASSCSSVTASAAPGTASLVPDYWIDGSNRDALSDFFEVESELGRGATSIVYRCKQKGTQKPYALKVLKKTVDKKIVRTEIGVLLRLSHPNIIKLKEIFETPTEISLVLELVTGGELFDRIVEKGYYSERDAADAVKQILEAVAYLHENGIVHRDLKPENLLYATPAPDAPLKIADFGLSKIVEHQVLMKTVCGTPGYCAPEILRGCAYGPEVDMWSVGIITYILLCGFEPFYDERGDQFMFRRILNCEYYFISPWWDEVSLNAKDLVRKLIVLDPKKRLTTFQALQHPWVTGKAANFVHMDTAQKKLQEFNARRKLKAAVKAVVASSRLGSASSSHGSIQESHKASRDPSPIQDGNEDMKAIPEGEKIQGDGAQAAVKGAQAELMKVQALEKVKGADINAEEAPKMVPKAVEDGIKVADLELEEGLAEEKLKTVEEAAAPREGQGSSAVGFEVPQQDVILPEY
Summary of the method: as §1

[3] = target: T3, ~100 representative kinases (Homo sapiens, UniProt Q8TD08); settings: protein MAPK15; average of three replicates
T3 construct: Recombinant protein kinase domains with a concentration of 2 μM
T3 sequence (Q8TD08 1-544): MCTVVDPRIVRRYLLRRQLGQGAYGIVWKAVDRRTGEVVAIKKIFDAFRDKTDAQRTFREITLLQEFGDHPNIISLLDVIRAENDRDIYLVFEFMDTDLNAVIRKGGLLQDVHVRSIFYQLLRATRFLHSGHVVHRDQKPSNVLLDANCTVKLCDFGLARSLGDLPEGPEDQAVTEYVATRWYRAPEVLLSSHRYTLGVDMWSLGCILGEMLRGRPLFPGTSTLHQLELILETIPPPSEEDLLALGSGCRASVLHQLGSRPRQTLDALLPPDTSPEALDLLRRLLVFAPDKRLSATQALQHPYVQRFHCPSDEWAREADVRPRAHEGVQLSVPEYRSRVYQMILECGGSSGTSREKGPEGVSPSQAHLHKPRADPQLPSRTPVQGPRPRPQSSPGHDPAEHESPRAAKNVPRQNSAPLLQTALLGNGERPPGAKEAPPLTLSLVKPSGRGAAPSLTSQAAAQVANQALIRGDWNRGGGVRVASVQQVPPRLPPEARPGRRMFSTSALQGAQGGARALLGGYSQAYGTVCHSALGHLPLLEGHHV
Summary of the method: as §1

SMILES | dTm [1] [K] | dTm [2] [K] | dTm [3] [K]
COc1cc(C(=O)N2CCOCC2)c(F)cc1Nc1nc(N(C)C)c2c(Cl)c[nH]c2n1 [Compound 36] | 6.68 | 1.63 | 0.97
COc1cc(S(C)(=O)=O)ccc1Nc1nc(N(C)C)c2c(Cl)c[nH]c2n1 [Compound 37] | 3.76 | -0.60 | -0.10
CCNc1nc(Nc2cc(F)c(C(=O)N3CCOCC3)cc2OC)ncc1C(F)(F)F [GNE-7915] | 0.77 | 0.15 | 2.03
Cc1ccc(C(=O)Nc2ccc(CN3CCN(C)CC3)c(C(F)(F)F)c2)cc1C#Cc1cnc2[nH]ncc2c1 [GZD-824, reference compound] | 11.23 | 0.32 | 5.29
C[C@@H]1CN(c2cc(-c3n[nH]c4ccc(OC5(C)CC5)cc34)ncn2)C[C@H](C)O1 [MLi2] | 0.31 | 1.22 | -0.33
Cn1cc(-c2c[nH]c3ncnc(N4CCOCC4)c23)cc1C#N [PFE-360] | -0.50 | 0.56 | 3.82
CNC(=O)c1cc(Oc2ccc(NC(=O)Nc3cc(C(C)(C)C)nn3-c3ccc4ncccc4c3)c(F)c2)ccn1 [Rebastinib, reference compound] | 4.99 | 1.22 | 14.70
